The source of these data is ChEMBL document CHEMBL3832033, “DailyMed|setid=f21494ed-c5e8-4ddf-b140-ecd68c5c312b | CLARITHROMYCIN EXTENDED RELEASE - clarithromycin tablet, film coated, extended release|Ranbaxy Pharmaceuticals Inc”.

Where “and” joins values, the source holds several entries; their conditions need not be identical. Equal entries are not always repeated.

The subject of one series is Homo sapiens. Kind of series: (§1) Pharmacokinetic parameters for Clarithromycin evaluated after single oral administration of 1000 or 2 x 500 mg Clarithromycin extended-release tablets to 34 adult volunteers under fasting and feeding conditions. In kind it is ADME, organism-based. Also noted: dose 1000 mg, dose 2 x 500, route oral. As to conditions: in vivo, po, dosed compound id 21, dosed compound name CLARITHROMYCIN, gender male and female, regimen Single dose, tissue Plasma.

The nature of series [1]: as §1. In kind it is ADME, organism-based. Further details: dose 1000 mg, dose 2 x 500, route oral. The note with it: human, in vivo, dosed compound id 21, dosed compound name CLARITHROMYCIN, gender male and female, regimen Single dose, tissue Plasma.

One may read the Tmax as the time at which the peak concentration occurs. By AUC(0-t) is commonly meant the area under the concentration-time curve up to a stated or last time point. The Cmax is the peak of the concentration-time curve. In general, AUC refers to concentration integrated over time. Turning to `CC[C@H]1OC(=O)[C@H](C)[C@@H](O[C@H]2C[C@@](C)(OC)[C@@H](O)[C@H](C)O2)[C@H](C)[C@@H](O[C@@H]2O[C@H](C)C[C@H](N(C)C)[C@H]2O)[C@](C)(OC)C[C@@H](C)C(=O)[C@H](C)[C@@H](O)[C@]1(C)O` [CLARITHROMYCIN], the time to peak (Tmax) in the series on Homo sapiens (dietary status Fasting, dose 2 x 500 mg) was 9.588 h; with Homo sapiens (dietary status Fed, dose 1000 mg) it was 6.118 h; in the series on Homo sapiens (dietary status Fed, dose 2 x 500 mg) it was 6.235 h; in series [1] (dietary status Fasting, dose 1000 mg, route oral), 11 h. Further, the “AUC(0-t)” value with Homo sapiens (dietary status Fasting) is 37615.9151 ng·h/mL; with Homo sapiens (dietary status Fed), 58485.5053 ng·h/mL and 60796.1185 ng·h/mL. Besides, the Cmax worked out at 3478.3286 ng/mL with Homo sapiens (dietary status Fed) and 3960 ng/mL in series [1] (po, 1000 mg, dietary status Fed). The AUC in series [1] (po, 1000 mg, dietary status Fasting, read-out: AUC(0-t)) turned out to be 36600 ng·h/mL.
